Test results published in patent US20250092065A1, “2-(INDAZOL-5-YL)-6-(PIPERIDIN-4-YL)-1,7-NAPHTHYRIDINE DERIVATIVES AND RELATED COMPOUNDS AS MODULATORS FOR SPLICING NUCLEIC ACIDS AND FOR THE TREATMENT OF PROLIFERATIVE DISEASES” (REMIX THERAPEUTICS INC., priority 2022, published 2025).
pIC50: −log10 of the molar value. Read-outs that look alike come from different tables or passages of the source.

Columns and labels:
[1] = tested on: K562 cells; assay: Cell Titer Glo 2.0 cell viability (toxicity) assay, K562; details: 500 cells/well, 72 hours
[2] = tested on: SMN2 mRNA; assay: RT-qPCR splicing assay, SMN2 mRNA; type: cell-based, human; details: Homo sapiens, canonical junction qPCR panel, Table 4; read-out: SMN2 IC50 (decrease in CJ mRNA levels)
Summary of the method: (§1)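 A673 or K562 cells treated 24 h at 37 °C with an 11-point 3-fold dilution series (top 10 uM, DMSO ≤0.25%). Lysates went directly to one-step RT-qPCR quantifying canonical (CJ) and alternative-exon (AJ) junctions, normalized to GAPDH, GUSB or PPIA. Values from ΔΔCt versus DMSO, RQ = 2^(−ΔΔCt), expressed as percentage response.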

[3] = tested on: MYB; assay: HiBiT protein abundance assay, MYB (K562 HiBiT knock-in); type: cell-based, human; details: HiBiT knock-in K562 cells, 24 hours, top dose 10 μM
Summary of the method: (§2)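 Luminescence readout: Nano-Glo HiBiT lytic detection after 24 h compound exposure of K562 HiBiT knock-in cells, 10000 cells/well. Dosing 10-pt, 3-fold, top 10 μM final. % response vs untreated parental K562 and DMSO controls; 4PL fit, IC50 = concentration giving 50% protein abundance.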

[4] = tested on: HTT; assay: HiBiT protein abundance assay, HTT (K562 HiBiT knock-in); type: cell-based, human; details: HiBiT knock-in K562 cells, 24 hours, top dose 10 μM
Summary of the method: as §2

[5] = tested on: MYB mRNA; assay: RT-qPCR splicing assay, MYB mRNA canonical (CJ) and alternative (AJ) junction; type: cell-based, human; details: Homo sapiens; for AC50: MYB alternative junction mRNA, read-out: MYB AJ (increase in AJ mRNA, AC50)
Summary of the method: as §1

[6] = tested on: Target C; assay: HiBiT protein abundance assay, Target C (K562 HiBiT knock-in); type: cell-based, human; details: HiBiT knock-in K562 cells, 24 hours, top dose 10 μM
Summary of the method: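 K562 HiBiT knock-in cells (10000/well) were treated 24 h at 37° C with a 10-point 3-fold dilution series (top 10 μM final, ≤0.25% DMSO). HiBiT luminescence was read after lytic LgBiT detection. Percent response used unmodified K562 and DMSO-treated knock-in controls, and IC50 came from a four-parameter fit at 50% of untreated.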

[7] = tested on: HTT mRNA; assay: RT-qPCR splicing assay, HTT mRNA canonical (CJ) and alternative (AJ) junction; type: cell-based, human; details: Homo sapiens; for AC50: HTT alternative junction mRNA, read-out: HTT AJ (increase in AJ mRNA, AC50)
Summary of the method: as §1

[8] = MYB canonical junction mRNA, RT-qPCR, read-out: MYB CJ (decrease in CJ mRNA levels, IC50)
[9] = canonical junction qPCR panel, Table 4, read-out: MYB IC50 (decrease in CJ mRNA levels)
[10] = HTT canonical junction mRNA, RT-qPCR, read-out: HTT CJ (decrease in CJ mRNA levels, IC50)
[11] = canonical junction qPCR panel, Table 4, read-out: HTT IC50 (decrease in CJ mRNA levels)

Row | Structure (SMILES) | Effect of Exemplary Compounds on Cell Viability, K562 [1] | pIC50 [2] | pIC50 [3] | pIC50 [4] | AC50 ([5]; RT-qPCR) [nM] | pIC50 [5, 8] | pIC50 [5, 9] | pIC50 [6] | AC50 ([7]; RT-qPCR) [nM] | pIC50 [7, 10] | pIC50 [7, 11]
1 | CN1CCC(c2ccc3nc(-c4cc5cn(C)nc5cc4O)ccc3n2)CC1 [Compound 142] | B (B represents 100-1000 nM) | > 7.00 | 6.00 to 7.00 | 6.00 to 7.00 | 100 to 1000 | 6.00 to 7.00 | 6.00 to 7.00 | 6.00 to 7.00 | 100 to 1000 | 6.00 to 7.00 | 6.00 to 7.00
2 | COc1cc2nn(C)cc2cc1-c1ccc2c(F)c(C3CCNCC3)ccc2n1 [Compound 143] | B (B represents 100-1000 nM) | < 5.00 | < 5.00 | < 5.00 | > 10000 | < 5.00 | < 5.00 | 5.00 to 6.00 | > 10000 | < 5.00 | < 5.00
3 | Cn1cc2cc(-c3ccc4cc(C5CCNCC5)c(F)cc4n3)c(O)cc2n1 [Compound 144] | D (D represents greater than 10 μM in K562 cells) | < 5.00 | < 5.00 | < 5.00 | > 10000 | < 5.00 | < 5.00 | < 5.00 | > 10000 | < 5.00 | < 5.00
4 | COc1cc2nn(C)cc2cc1-c1ccc2cc(C3CCNCC3)c(F)cc2n1 [Compound 145] | D (D represents greater than 10 μM in K562 cells) | < 5.00 | < 5.00 | < 5.00 | > 10000 | < 5.00 | < 5.00 | < 5.00 | > 10000 | < 5.00 | < 5.00
5 | Cn1cc2cc(O)c(-c3ccc4nc(C5CCNCC5)ccc4n3)cc2n1 [Compound 146] | C (C represents 1000-9999 nM) | 6.00 to 7.00 | 5.00 to 6.00 | 5.00 to 6.00 | 1000 to 10000 | 5.00 to 6.00 | 5.00 to 6.00 | 5.00 to 6.00 | 1000 to 10000 | 5.00 to 6.00 | 5.00 to 6.00
6 | Cc1nc2cc(O)c(-c3ccc4nc(C5CCNCC5)ccc4n3)cc2s1 [Compound 148] | B (B represents 100-1000 nM) | > 7.00 | 5.00 to 6.00 | 5.00 to 6.00 | 100 to 1000 | 6.00 to 7.00 | 6.00 to 7.00 | 5.00 to 6.00 | 1000 to 10000 | 5.00 to 6.00 | 5.00 to 6.00
7 | Cc1cn2cc(-c3ccc4nc(C5CCNCC5)ccc4n3)c(O)cc2n1 [Compound 149] | C (C represents 1000-9999 nM) | 6.00 to 7.00 | 5.00 to 6.00 | 5.00 to 6.00 | > 10000 | 5.00 to 6.00 | 5.00 to 6.00 | < 5.00 | > 10000 | < 5.00 | < 5.00
8 | Cc1cn2nc(-c3ccc4nc(C5CCNCC5)ccc4n3)c(O)c2c(C)n1 [Compound 150] | A (A represents <100 nM) | > 7.00 | > 7.00 | > 7.00 | < 100 | > 7.00 | > 7.00 | > 7.00 | < 100 | > 7.00 | > 7.00
9 | c1c[nH]c(-c2ccc3nc(C4CCNCC4)ccc3n2)n1 [Compound 152] | D (D represents greater than 10 μM in K562 cells) | 5.00 to 6.00 | < 5.00 | < 5.00 | > 10000 | < 5.00 | < 5.00 | < 5.00 | > 10000 | < 5.00 | < 5.00
10 | Cn1cc2cc(-c3ccc4nc(N5CC[C@@H](NC(C)(C)C)C5)ccc4n3)c(O)cc2n1 [Compound 153] | B (B represents 100-1000 nM) | > 7.00 | > 7.00 | > 7.00 | < 100 | > 7.00 | > 7.00 | > 7.00 | < 100 | > 7.00 | > 7.00
11 | Cn1cc2cc(-c3ccc4nc(N5CC[C@H](NC(C)(C)C)C5)ccc4n3)c(O)cc2n1 [Compound 154] | A (A represents <100 nM) | > 7.00 | > 7.00 | > 7.00 | < 100 | 6.00 to 7.00 | 6.00 to 7.00 | > 7.00 | < 100 | > 7.00 | > 7.00
12 | Cn1cc2cc(-c3ccc4nc(N5CC[C@@H](NC6CCC6)C5)ccc4n3)c(O)cc2n1 [Compound 157] | B (B represents 100-1000 nM) | > 7.00 | > 7.00 | > 7.00 | < 100 | > 7.00 | > 7.00 | 6.00 to 7.00 | < 100 | > 7.00 | > 7.00
13 | Cn1cc2cc(-c3ccc4nc(N5CCC(NC6CC6)C5)ccc4n3)c(O)cc2n1 (stereo not shown) [Compound 158] | B (B represents 100-1000 nM) | > 7.00 | > 7.00 | > 7.00 | < 100 | > 7.00 | > 7.00 | 6.00 to 7.00 | < 100 | > 7.00 | > 7.00
14 | Cn1cc2cc(-c3ccc4nc(OC5CNC5)ccc4n3)c(O)cc2n1 [Compound 159] | C (C represents 1000-9999 nM) | 6.00 to 7.00 | 6.00 to 7.00 | 6.00 to 7.00 | 1000 to 10000 | 5.00 to 6.00 | 5.00 to 6.00 | 5.00 to 6.00 | 1000 to 10000 | 5.00 to 6.00 | 5.00 to 6.00
15 | Cn1cc2cc(-c3ccc4nc(N5CC[C@]67CCN[C@H]6CC[C@H]57)ccc4n3)c(O)cc2n1 [Compound 160] | B (B represents 100-1000 nM) | > 7.00 | 6.00 to 7.00 | 6.00 to 7.00 | 100 to 1000 | 6.00 to 7.00 | 6.00 to 7.00 | 6.00 to 7.00 | 100 to 1000 | 6.00 to 7.00 | 6.00 to 7.00
16 | COc1cc2ccncc2cc1-c1ccc2nc(N3CCC(NC(C)(C)C)C3)ccc2n1 (stereo not shown) [Compound 161] | C (C represents 1000-9999 nM) | 5.00 to 6.00 | < 5.00 | < 5.00 | > 10000 | < 5.00 | < 5.00 | < 5.00 | > 10000 | < 5.00 | < 5.00
17 | Cn1cc2cc(-c3ccc4nc(N5CCC56CCNC6)ccc4n3)c(O)cc2n1 (stereo not shown) [Compound 162] | C (C represents 1000-9999 nM) | 5.00 to 6.00 | < 5.00 | < 5.00 | > 10000 | < 5.00 | < 5.00 | < 5.00 | > 10000 | < 5.00 | < 5.00
18 | Cn1cc2cc(-c3ccc4nc(N5CCC56CCCNC6)ccc4n3)c(O)cc2n1 (stereo not shown) [Compound 163] | C (C represents 1000-9999 nM) | 6.00 to 7.00 | 5.00 to 6.00 | 5.00 to 6.00 | 1000 to 10000 | 5.00 to 6.00 | 5.00 to 6.00 | < 5.00 | > 10000 | < 5.00 | < 5.00
19 | Cn1cc2cc(-c3ccc4nc(N5CCC56CCNCC6)ccc4n3)c(O)cc2n1 [Compound 164] | B (B represents 100-1000 nM) | 6.00 to 7.00 | 6.00 to 7.00 | 6.00 to 7.00 | 100 to 1000 | 6.00 to 7.00 | 6.00 to 7.00 | 6.00 to 7.00 | 100 to 1000 | 6.00 to 7.00 | 6.00 to 7.00
20 | Cn1cc2cc(-c3ccc4nc(N5CC(NC(C)(C)C)C5)ccc4n3)c(O)cc2n1 [Compound 165] | B (B represents 100-1000 nM) | 5.00 to 6.00 | 5.00 to 6.00 | 5.00 to 6.00 | 1000 to 10000 | 5.00 to 6.00 | 5.00 to 6.00 | 5.00 to 6.00 | 1000 to 10000 | 5.00 to 6.00 | 5.00 to 6.00
